We go through five compounds from ChEMBL document CHEMBL3734663, “Solid-phase synthesis and in vitro biological activity of a Thr4→Ser4 analog of daptomycin” (2015).

What all share (assay type): functional
Assay [1] concerns Bacillus subtilis. In words: Antibacterial activity against Bacillus subtilis 1046 in presence of 100 mM Ca2+.
Assay [2] concerns Bacillus subtilis. Put plainly: Antibacterial activity against Bacillus subtilis 1046 in presence of 5 mM Ca2+.
In assay [3] the test system is Bacillus subtilis. Put plainly: Antibacterial activity against Bacillus subtilis 1046 in presence of 1.8 mM Ca2+.

Broadly, the MIC is the lowest concentration found to suppress growth. On to `CCCCCCCCCC(=O)N[C@@H](Cc1c[nH]c2ccccc12)C(=O)N[C@@H](CC(N)=O)C(=O)N[C@@H](CC(=O)O)C(=O)N[C@H]1COC(=O)[C@H](Cc2ccc(O)cc2)NC(=O)[C@H](CCC(=O)O)NC(=O)[C@@H](CO)NC(=O)CNC(=O)[C@H](CC(=O)O)NC(=O)[C@@H](C)NC(=O)[C@H](CC(=O)O)NC(=O)[C@H](CCCN)NC(=O)CNC1=O`, for which the minimum inhibitory concentration (MIC) amounted to 1.3 µg/mL in the assay on Bacillus subtilis [1] and 35 µg/mL with Bacillus subtilis [2].

Consider `CCCCCCCCCC(=O)N[C@@H](Cc1c[nH]c2ccccc12)C(=O)N[C@@H](CC(N)=O)C(=O)N[C@@H](CC(=O)O)C(=O)N[C@H]1COC(=O)[C@H](Cc2c[nH]c3ccccc23)NC(=O)[C@H](CCC(=O)O)NC(=O)[C@@H](CO)NC(=O)CNC(=O)[C@H](CC(=O)O)NC(=O)[C@@H](C)NC(=O)[C@H](CC(=O)O)NC(=O)[C@H](CCCN)NC(=O)CNC1=O`, for which the minimal inhibitory concentration (MIC) with Bacillus subtilis [1] turned out to be 1.5 µg/mL; in the assay with Bacillus subtilis [2], 1.5 µg/mL; in the assay on Bacillus subtilis [3] it was 5 µg/mL.

On to `CCCCCCCCCC(=O)N[C@@H](Cc1c[nH]c2ccccc12)C(=O)N[C@H](CC(N)=O)C(=O)N[C@@H](CC(=O)O)C(=O)N[C@@H]1C(=O)NCC(=O)N[C@@H](CCCN)C(=O)N[C@@H](CC(=O)O)C(=O)N[C@H](C)C(=O)N[C@@H](CC(=O)O)C(=O)NCC(=O)N[C@H](CO)C(=O)N[C@@H]([C@H](C)CC(=O)O)C(=O)N[C@@H](CC(=O)c2ccccc2N)C(=O)O[C@@H]1C`, for which the minimal inhibitory concentration (MIC) in the assay on Bacillus subtilis [1] was found to be 0.5 µg/mL; in the assay with Bacillus subtilis [2] it was 0.75 µg/mL; in the assay on Bacillus subtilis [3], 1 µg/mL.

On to `CCCCCCCCCC(=O)N[C@@H](Cc1c[nH]c2ccccc12)C(=O)NC(CC(N)=O)C(=O)N[C@@H](CC(=O)O)C(=O)N[C@@H]1C(=O)NCC(=O)N[C@@H](CCCN)C(=O)N[C@@H](CC(=O)O)C(=O)N[C@H](C)C(=O)N[C@@H](CC(=O)O)C(=O)NCC(=O)N[C@H](CO)C(=O)N[C@@H](C(C)CC(=O)O)C(=O)N[C@@H](CC(=O)c2ccccc2N)C(=O)O[C@@H]1C` (single isomer, unassigned) [DAPTOMYCIN], for which the minimum inhibitory concentration (MIC) in the assay on Bacillus subtilis [1] was found to be 5 µg/mL; in the assay on Bacillus subtilis [2] it was 5 µg/mL; in the assay with Bacillus subtilis [3], 40 µg/mL.

In the case of `CCCCCCCCCC(=O)N[C@@H](Cc1c[nH]c2ccccc12)C(=O)N[C@@H](CC(N)=O)C(=O)N[C@@H](CC(=O)O)C(=O)N[C@H]1COC(=O)[C@H](Cc2c[nH]c3ccccc23)NC(=O)[C@H](CCC(=O)O)NC(=O)[C@@H](CO)NC(=O)CNC(=O)[C@H](CC(=O)O)NC(=O)[C@@H](C)NC(=O)[C@H](C)NC(=O)[C@H](CCCN)NC(=O)CNC1=O`, the minimal inhibitory concentration (MIC) in the assay on Bacillus subtilis [1], in the assay with Bacillus subtilis [2] and with Bacillus subtilis [3] was > 100 µg/mL throughout.
